Test results from patent US20030198614A1, “Hair growers” (priority 2000, published 2003).

Legend:
[1] = test system: C3H/He mice, whose hair cycle was at the telogen stage; assay: Hair regrowth effect test; format: in vivo; conditions: 0.1 ml once a day on shaved back, after 24 days, average of 6 mice
Description: The Compounds 1 to 5 described above were used as test materials. Each test material was dissolved in 70% ethanol aqueous solution and the solution was subjected to the application as a sample (test material concentration: 50 nM and 100 nM). 70% Ethanol was also used as a control sample.
The hair regrowth effect test was performed using C3H/He mice, whose hair cycle was at the telogen stage according to the method of Ogawa et. al. (Normal and Abnormal Epidermal Differentiation, Edited by M. Seiji and I. A. Bernstein, Pages 159-170, 1982, Todai Shuppan).
Namely, 6 mice were used in a group and their hair of the regions of back was shaved by hair clippers. 0.1 ml of sample was applied on the shaved regions once a day. After 24 days, the hair regrowth area was measured and the hair regrowth area rate was calculated based on the hair regrowth area with respect to the shaved area. The results are shown in Table 1 (expressed by average values).

[2] = test system: cultured human trichoepithelial cell; assay: Trichoepithelial cell growth promoting effect test; format: cell-based; conditions: 1.0×10^-6 mol/L, 2 days, Alamer Blue; negative control = 0, positive control (insulin + hydrocortisone) = 1
Description: According to the method described in JP-A-2000-63242, a cultured trichoepithelial cell of a human scalp was used to measure a trichoepithelial cell growth promoting effect.
From a human scalp obtained as a by-product of a surgical operation, a hair follicle at a anagen stage in a hair cycle was isolated mechanically under the observation by a stereoscopic microscope. This hair follicle at a anagen stage was treated in a Dulbecco's modified MEM (DMEM) supplemented with 1000 U/ml dispase and 0.2% collagenase for 30 minutes at 37° C. Adipose tissues, connective tissue root sheath and dermal papilla were removed therefrom using the tip of a syringe needle and the hair follicle was treated in a phosphate buffer containing 0.05% EDTA for 5 minutes at 37° C.
Subsequently, the hair follicle was placed on a culture dish coated with Type I collagen, and incubated in a KGM medium (serum-free keratinocyte growth medium). After incubation for 4 to 5 days, the culture medium was exchanged upon ensuring the adhesion of the hair follicle on the bottom face of the culture dish and the growth of the trichoepithelial cell, and thereafter the culture medium was exchanged every 2 days.
After the cell thus proliferated was treated in a phosphate buffer containing 0.05% trypsin and 0.02% EDTA for 5 minutes at 37° C., the reaction was quenched using an equal volume of 0.1% trypsin inhibitor and the cell was recovered by centrifugation (800×g, 5 minutes).
Subsequently, the cell was suspended in the serum-free culture medium described above, and inoculated at the density of 5000 cells/cm^2 onto a culture dish coated with Type I collagen. The culture medium was exchanged every 2 days until the cell became subconfluent. After treating the cell again in the phosphate buffer containing 0.05% trypsin and 0.02% EDTA for 5 minutes at 37° C., the reaction was quenched using an equal volume of 0.1% trypsin inhibitor and the cell was recovered by centrifugation (800×g, 5 minutes). The human trichoepithelial cell thus obtained was adjusted at the concentration of 100,000 cells/ml with a cell cryopreservation solution (Cellbanker: DIA-IATRON) added thereto, and dispensed into each freezing tube as a 100,000 cells (1 ml), which was then stored as being frozen. The cell counts described above were calculated using a hemocytometer.
After inoculating the trichoepithelial cell obtained in the step described above into a culture flask, the cell was treated with a phosphate buffer containing 0.25% trypsin and 0.02% EDTA. The reaction was quenched with 0.1% trypsin inhibitor, and then the mixture was centrifuged at 1,500 rpm for 5 minutes. The supernatant was removed, and the precipitated cell pellet was combined with a KGM medium to prepare a cell suspension.
The cell suspension in the KGM medium was inoculated to a Type I collager-coated 96-well microplate (Falcon) at 3,000 cells (0.2 ml)/well and allowed to stand for about 20 minutes at room temperature until the cell went down onto the bottom. Then, the cell was cultured for 1 day in an incubator in the presence of 5% CO2 at 37° C., whereby obtaining an intended cultured human trichoepithelial cell.
A test material and DMSO were added to a KGM medium at the final concentrations of 1.0×10^−6 mol/L and 0.1%, respectively.
Negative control: DMSO was added to a KGM medium at the final concentration of 0.1%.
Positive control: Insulin and hydrocortisone were dissolved in DMSO, which was then added to a KGM medium. The final concentrations of insulin, hydrocortisone and DMSO were 5 μg/ml, 0.5 μg/ml and 0.1%, respectively.
The KMG medium in the 96-well microplate employed for preparing the cultured human trichoepithelial cell in Step A described above was exchanged with a test material-supplemented medium or a control medium (200 μl/well), and the incubation was continued for 2 days in the presence of 5% CO2 at 37° C. […]

[3] = test system: human hair follicle in the anagen stage; assay: Investigation of hair shaft elongation (organ culture of human hair follicle); format: cell-based; conditions: 1.0×10^-5 mol/L, 5-day incubation, 9 hair follicles per group
Description: A hair follicle in the anagen stage was isolated from a human scalp under a stereoscopic microscope observation, washed with “a medium prepared by adding penicillin, streptomycin and fungizone to Williams E medium (Gibco)” (hereinafter referred to as a (−) medium) and then examined for its length.
A medium obtained by supplementing the (−) medium further with 10 ng/ml hydrocortisone, 10 μg/ml insulin, 10 ng/ml sodium selenite and 10 μg/ml transferring (hereinafter ter referred to as a (+) medium) was dispensed in an aliquot of 1 ml per well into a 24-well microplate. The hair follicle described above was precipitated therein and incubated overnight at 37° C. in the presence of 5% CO2 (preincubation).
The elongation of the hair shaft in a hair follicle was determined by inspecting the microplate described above visually using an inverted microscope with a micrometer attached thereto.
A DMSO solution of a test material was added to a (−) medium for preparation. The final concentrations of the test material and DMSO were 1.0×10^−5 mol/L and 0.1%, respectively.
Only DMSO was added to a (−) medium at the final concentration of 0.1% for preparation.
The culture medium of the hair follicle groups described above was replaced each with the test materialcontaining medium or negative control medium, and the incubation was continued further for 5 days at 37° C. in the presence of 5% CO2. The length of each hair after 5-day incubation was measured, and the means were compared with each other.

## CCCCCCCCCCCCCCCCOCC(O)COC (centres unmarked) [Compound 2, 1-Hexadecyloxy-3-methoxy-2-propanol]
[1]; 50 nM in 70% ethanol
  Hair regrowth area rate: 65%
[1]; 100 nM in 70% ethanol
  Hair regrowth area rate: 88%
[2]
  Cell growth promoting index: 1.5
[3]
  Mean of hair shaft elongation: 1.5 mm

## CCCCCCCCCCCCCCCCOCC(COC)OC (centres unmarked) [Compound 4, 1-(2,3-Dimethoxypropoxy)hexadecane]
[1]; 50 nM in 70% ethanol
  Hair regrowth area rate: 68%
[1]; 100 nM in 70% ethanol
  Hair regrowth area rate: 78%
[2]
  Cell growth promoting index: 1.4
[3]
  Mean of hair shaft elongation: 1.9 mm

## CCCCCCCCCCCCCCCCOC(CO)COC (centres unmarked) [Compound 1, 2-Hexadecyloxy-3-methoxy-1-propanol]
[1]; 50 nM in 70% ethanol
  Hair regrowth area rate: 70%
[1]; 100 nM in 70% ethanol
  Hair regrowth area rate: 93%
[2]
  Cell growth promoting index: 1.3
[3]
  Mean of hair shaft elongation: 1.7 mm

## CCCCCCCCCCCCCCCCOCCCO [Compound 3, 3-Hexadecyloxy-1-propanol]
[1]; 50 nM in 70% ethanol
  Hair regrowth area rate: 15%
[1]; 100 nM in 70% ethanol
  Hair regrowth area rate: 74%
[2]
  Cell growth promoting index: 1.4
[3]
  Mean of hair shaft elongation: 1.6 mm

## CCCCCCCCCCCCCCCCCCC(CO)OC (centres unmarked) [Compound 5, 2-Methoxy-1-eicosanol]
[1]; 50 nM in 70% ethanol
  Hair regrowth area rate: 70%
[1]; 100 nM in 70% ethanol
  Hair regrowth area rate: 76%
[2]
  Cell growth promoting index: 1.2
[3]
  Mean of hair shaft elongation: 1.4 mm
